# System: Hepatitis C virus
# Experiment: Inhibition of HCV replication in a cellular replicon assay
# Format: functional, organism-based, Hepacivirus hominis
# Conditions: not given
row,EC50,Compound
1,2 µM,CN(C)C(=O)[C@@H](NC(=O)CNC(=O)C(=O)C(CC1CCC1)NC(=O)[C@@H]1C2CCC(C2)N1C(=O)[C@@H](NC(=O)NC(C)(C)C)C(C)(C)C)c1ccccc1 (some centres undefined)
2,0.6 µM,CCCCC(NC(=O)[C@@H]1C2CCC(C2)N1C(=O)[C@@H](NC(=O)OC(C)(C)C)C1CCCCC1)C(=O)C(=O)NCC(=O)N[C@H](C(=O)N(C)C)c1ccccc1 (some centres undefined)

# Target: T1, Neutrophil elastase (Homo sapiens, UniProt P08246)
# T1 sequence (P08246 whole entry): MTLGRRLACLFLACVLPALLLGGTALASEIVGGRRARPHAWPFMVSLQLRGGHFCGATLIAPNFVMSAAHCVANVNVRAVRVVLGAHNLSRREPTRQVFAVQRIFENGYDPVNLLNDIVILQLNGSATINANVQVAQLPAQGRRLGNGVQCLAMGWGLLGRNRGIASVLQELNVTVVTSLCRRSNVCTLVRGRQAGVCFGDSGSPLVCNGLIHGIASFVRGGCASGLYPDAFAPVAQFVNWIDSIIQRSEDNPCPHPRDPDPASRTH
# Experiment: Inhibitory activity against HNE
# Conditions: read-out: Ki app
row,Ki,Compound
1,0.34 µM,CN(C)C(=O)[C@@H](NC(=O)CNC(=O)C(=O)C(CC1CC1)NC(=O)[C@@H]1C2CCC(C2)N1C(=O)[C@@H](NC(=O)NC(C)(C)C)C(C)(C)C)c1ccccc1 (some centres undefined)
2,5.3 µM,CN(C)C(=O)[C@@H](NC(=O)CNC(=O)C(=O)C(CC1CCC1)NC(=O)[C@@H]1C2CCC(C2)N1C(=O)[C@@H](NC(=O)NC(C)(C)C)C(C)(C)C)c1ccccc1 (some centres undefined)

# System: not listed separately
# Experiment: Selectivity for HNE over HCV NS3 protease
# Conditions: not given
row,Ratio Ki(app),Compound
1,35,CN(C)C(=O)[C@@H](NC(=O)CNC(=O)C(=O)C(CC1CC1)NC(=O)[C@@H]1C2CCC(C2)N1C(=O)[C@@H](NC(=O)NC(C)(C)C)C(C)(C)C)c1ccccc1 (some centres undefined)

# Target: NS3 (Hepatitis C virus, UniProt A3EZJ3)
# Sequence (A3EZJ3 whole entry): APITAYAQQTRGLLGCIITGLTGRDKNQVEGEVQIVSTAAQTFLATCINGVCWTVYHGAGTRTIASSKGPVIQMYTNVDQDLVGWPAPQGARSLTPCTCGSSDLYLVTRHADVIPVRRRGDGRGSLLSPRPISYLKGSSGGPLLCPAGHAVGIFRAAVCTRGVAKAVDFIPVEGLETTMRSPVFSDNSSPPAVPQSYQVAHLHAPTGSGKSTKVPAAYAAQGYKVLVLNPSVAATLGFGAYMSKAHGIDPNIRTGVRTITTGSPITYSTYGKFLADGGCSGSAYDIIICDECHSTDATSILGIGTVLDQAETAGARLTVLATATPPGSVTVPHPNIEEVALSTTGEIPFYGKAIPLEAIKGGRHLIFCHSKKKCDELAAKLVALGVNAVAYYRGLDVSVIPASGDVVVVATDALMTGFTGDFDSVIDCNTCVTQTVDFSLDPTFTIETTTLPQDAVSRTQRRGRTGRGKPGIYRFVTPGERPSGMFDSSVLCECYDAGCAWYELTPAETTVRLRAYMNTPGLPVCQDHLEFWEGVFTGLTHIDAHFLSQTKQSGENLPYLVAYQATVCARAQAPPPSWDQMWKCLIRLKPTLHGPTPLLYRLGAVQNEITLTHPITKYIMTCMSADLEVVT
# Experiment: Inhibitory activity against HCV NS3 protease
# Parameters: species or system Hepacivirus hominis
# Conditions: read-out: Ki
row,Ki,Compound
1,0.053 µM,CC(C)CC(NC(=O)[C@@H]1C2CCC(C2)N1C(=O)[C@@H](NC(=O)OC(C)(C)C)C1CCCCC1)C(=O)C(=O)NCC(=O)N[C@H](C(=O)N(C)C)c1ccccc1 (some centres undefined)
2,0.019 µM,CN(C)C(=O)[C@@H](NC(=O)CNC(=O)C(=O)C(CC1CC1)NC(=O)[C@@H]1C2CCC(C2)N1C(=O)[C@@H](NC(=O)NC(C)(C)C)C1CCCCC1)c1ccccc1 (some centres undefined)

# Same assay, conditions: read-out: Ki app
row,Ki,Compound
1,0.04 µM,CC(C)CC(NC(=O)[C@@H]1C2CCC(C2)N1C(=O)[C@@H](NC(=O)OC(C)(C)C)C(C)(C)C)C(=O)C(=O)NCC(=O)N[C@H](C(=O)N(C)C)c1ccccc1 (some centres undefined)
2,1.5 µM,CCCC(NC(=O)[C@@H]1C2CCC(C2)N1C(=O)[C@@H](NC(=O)OC(C)(C)C)C(C)(C)C)C(=O)C(=O)NCC(=O)OCc1ccccc1 (some centres undefined)
3,0.09 µM,CCCC(NC(=O)[C@@H]1C2CCC(C2)N1C(=O)[C@@H](NC(=O)OC(C)(C)C)C1CCCCC1)C(=O)C(=O)NCC(=O)N[C@H](C(=O)N(C)C)c1ccccc1 (some centres undefined)
4,3.8 µM,CCCC(NC(=O)[C@@H]1C2CCC(C2)N1C(=O)[C@@H](NC(=O)OC(C)(C)C)C(C)(C)C)C(=O)C(=O)NCC(=O)O (some centres undefined)
5,0.081 µM,CCCCC(NC(=O)[C@@H]1C2CCC(C2)N1C(=O)[C@@H](NC(=O)OC(C)(C)C)C(C)(C)C)C(=O)C(=O)NCC(=O)N[C@H](C(=O)N(C)C)c1ccccc1 (some centres undefined)
6,0.01 µM,CN(C)C(=O)[C@@H](NC(=O)CNC(=O)C(=O)C(CC1CC1)NC(=O)[C@@H]1C2CCC(C2)N1C(=O)[C@@H](NC(=O)NC(C)(C)C)C(C)(C)C)c1ccccc1 (some centres undefined)
7,0.013 µM,CN(C)C(=O)[C@@H](NC(=O)CNC(=O)C(=O)C(CC1CCC1)NC(=O)[C@@H]1C2CCC(C2)N1C(=O)[C@@H](NC(=O)NC(C)(C)C)C(C)(C)C)c1ccccc1 (some centres undefined)
8,6.9 µM,CCCC(NC(=O)[C@@H]1C2CCC(C2)N1C(=O)[C@@H](NC(=O)OC(C)(C)C)C(C)(C)C)C(=O)C(N)=O (some centres undefined)
9,0.027 µM,CN(C)C(=O)[C@@H](NC(=O)CNC(=O)C(=O)C(CC1CCC1)NC(=O)[C@@H]1C2CCC(C2)N1C(=O)[C@@H](NC(=O)OC(C)(C)C)C(C)(C)C)c1ccccc1 (some centres undefined)
10,5.5 µM,C=CCNC(=O)C(=O)C(CCC)NC(=O)[C@@H]1C2CCC(C2)N1C(=O)[C@@H](NC(=O)OC(C)(C)C)C(C)(C)C (some centres undefined)
11,0.11 µM,CCCC(NC(=O)[C@@H]1C2CCC(C2)N1C(=O)[C@@H](NC(=O)OC(C)(C)C)C(C)(C)C)C(=O)C(=O)NCC(=O)N[C@H](C(=O)N(C)C)c1ccccc1 (some centres undefined)
12,0.09 µM,CCCC(NC(=O)[C@@H]1C2CC([C@H]3C[C@@H]23)N1C(=O)[C@@H](NC(=O)C(C)(C)C)C1CCCCC1)C(=O)C(=O)NCC(=O)N[C@H](C(=O)N(C)C)c1ccccc1 (some centres undefined)
13,0.027 µM,CCCCC(NC(=O)[C@@H]1C2CC([C@H]3C[C@@H]23)N1C(=O)[C@@H](NC(=O)C(C)(C)C)C1CCCCC1)C(=O)C(=O)NCC(=O)N[C@H](C(=O)N(C)C)c1ccccc1 (some centres undefined)
14,0.021 µM,CN(C)C(=O)[C@@H](NC(=O)CNC(=O)C(=O)C(CC1CCC1)NC(=O)[C@@H]1C2CCC(C2)N1C(=O)[C@@H](NC(=O)NC(C)(C)C)C1CCCCC1)c1ccccc1 (some centres undefined)
15,0.02 µM,CN(C)C(=O)[C@@H](NC(=O)CNC(=O)C(=O)C(CC1CC1)NC(=O)[C@@H]1C2CCC(C2)N1C(=O)[C@@H](NC(=O)OC(C)(C)C)C1CCCCC1)c1ccccc1 (some centres undefined)
16,0.019 µM,CN(C)C(=O)[C@@H](NC(=O)CNC(=O)C(=O)C(CC1CC1)NC(=O)[C@@H]1C2CCC(C2)N1C(=O)[C@@H](NC(=O)OC(C)(C)C)C(C)(C)C)c1ccccc1 (some centres undefined)
17,0.051 µM,CN(C)C(=O)[C@@H](NC(=O)CNC(=O)C(=O)C(CC1CCC1)NC(=O)[C@@H]1C2CCC(C2)N1C(=O)[C@@H](NC(=O)OC(C)(C)C)C1CCCCC1)c1ccccc1 (some centres undefined)

# — ChEMBL document CHEMBL1146051, “Novel inhibitors of hepatitis C NS3-NS4A serine protease derived from 2-aza-bicyclo[2.2.1]heptane-3-carboxylic acid” (Bioorg Med Chem Lett, 2006)
